In patent US4552701A, “Glycopeptide antibiotics and process of preparation” (Eli Lilly and Company, priority 1984, dated 1985):

How the values were obtained:
[1] = tested on: Eubacterium aerofaciens 1235; format: cell-based; details: agar dilution, read after 24 hrs
Klebsiella pneumonia KAE = format: cell-based; details: agar dilution
[2] = tested on: Streptococcus faecium ATCC 9790; format: cell-based; details: agar dilution
[3] = tested on: Bacteroides corrodens 1874; format: cell-based; details: agar dilution, read after 24 hrs
[4] = tested on: Fusobacterium necrophorum 6054A; format: cell-based; details: agar dilution, read after 24 hrs
[5] = tested on: Staphylococcus aureus NRRL B313; details: agar dilution
[6] = tested on: Haemophilus influenzae 76; format: cell-based; details: agar dilution
[7] = tested on: Bacteroides melaninogenicus 2736; format: cell-based; details: agar dilution, read after 24 hrs
[8] = tested on: Staphylococcus aureus V41; details: agar dilution
[9] = tested on: gram-positive microorganisms; experiment: in vitro antibacterial activity (general statement); format: cell-based; details: statement in words
[10] = tested on: Propionibacterium acnes 79; format: cell-based; details: agar dilution, read after 24 hrs
[11] = tested on: Clostridium difficile 2994; format: cell-based; details: agar dilution, read after 24 hrs
Procedure: (§1) | read after 24hrs. incubation.

[12] = tested on: Clostridium septicum 1128; format: cell-based; details: agar dilution, read after 24 hrs
Procedure: as §1

Peptococcus prevoti 1281 = details: agar dilution, read after 24 hrs
[13] = tested on: Staphylococcus aureus X400; details: agar dilution
[14] = tested on: Haemophilus influenzae C.L.; format: cell-based; details: agar dilution
Escherichia coli EC14 = format: cell-based; details: agar dilution
[15] = tested on: Bacteroides thetaiotaomicron 1438; format: cell-based; details: agar dilution, read after 24 hrs
Escherichia coli TEM = format: cell-based; details: agar dilution
[16] = tested on: Bacteroides vulgatis 1211; format: cell-based; details: agar dilution, read after 24 hrs
Klebsiella pneumonia X68 = format: cell-based; details: agar dilution
[17] = tested on: Fusobacterium symbiosum 1470; format: cell-based; details: agar dilution, read after 24 hrs
[18] = tested on: Staphylococcus epidermidis 222; format: cell-based; details: agar dilution
[19] = tested on: Staphylococcus epidermidis EP11; format: cell-based; details: agar dilution
[20] = tested on: Streptococcus pyogenes C203; format: cell-based; details: agar dilution
Klebsiella pneumonia X26 = format: cell-based; details: agar dilution
[21] = tested on: Bacteroides fragilis 1936B; format: cell-based; details: agar dilution, read after 24 hrs
[22] = tested on: Peptostreptococcus intermedius 1264; format: cell-based; details: agar dilution, read after 24 hrs
[23] = tested on: Streptococcus pneumoniae Park 1; format: cell-based; details: agar dilution
[24] = tested on: Peptostreptococcus anaerobius 1428; format: cell-based; details: agar dilution, read after 24 hrs
[25] = tested on: Bacteroides fragilis 1877; format: cell-based; details: agar dilution, read after 24 hrs
[26] = tested on: Bacteroides melaninogenicus 1856/28; format: cell-based; details: agar dilution, read after 24 hrs
Bacteroides fragilis 111 = format: cell-based; details: agar dilution, read after 24 hrs
[27] = tested on: Streptococcus sp. group D 2041; format: cell-based; details: agar dilution
Streptococcus pyogenes = experiment: experimental bacterial infection in mice, ED50; format: in vivo; details: subcutaneous, two doses
Procedure: (§2) The formula 1 compounds have also shown in vivo antimicrobial activity against experimental bacterial infections. When two doses of test compound were administered to mice in experimental infections, the activity observed was measured as an ED50 value [effective dose in mg/kg to protect 50% of the test animals: see Warren Wick, et al., J. Bacteriol. 81, 233-235 (1961)].

Staphylococcus aureus = experiment: experimental bacterial infection in mice, ED50; format: in vivo; details: subcutaneous, two doses
Procedure: as §2

Streptococcus pneumoniae = experiment: experimental bacterial infection in mice, ED50; format: in vivo; details: subcutaneous, two doses
Procedure: as §2

Escherichia coli N10 = format: cell-based; details: agar dilution
[28] = tested on: Clostridium perfringens 81; format: cell-based; details: agar dilution, read after 24 hrs
[29] = tested on: Peptococcus asaccharolyticus 1302; format: cell-based; details: agar dilution, read after 24 hrs

CN[C@H](CC(C)C)C(=O)N[C@H]1C(=O)N[C@@H](CC(N)=O)C(=O)N[C@H]2C(=O)N[C@H]3C(=O)N[C@H](C(=O)N[C@H](C(=O)O)c4cc(O)cc(O)c4-c4cc3ccc4O)[C@H](O)c3ccc(c(Cl)c3)Oc3cc2cc(c3O)Oc2ccc(cc2Cl)[C@H]1O [Compound 10, aglucovancomycin]
64 µg/mL: MIC [6] | MIC [14] | MIC (Escherichia coli TEM) | MIC [27] | MIC [29]
128 µg/mL: MIC [1] | MIC [7] | MIC [16] | MIC [25]
2 µg/mL: MIC [4] | MIC [19]
good in vitro antibacterial activity: antibacterial activity [9]
16.54 mg/kg/2: ED50 (Streptococcus pneumoniae)
1 µg/mL: MIC [2] | MIC [8] | MIC [13] | MIC [18]
0.5 µg/mL: MIC [5] | MIC [20] | MIC [23]
22.3 mg/kg/2: ED50 (Streptococcus pyogenes)
32 µg/mL: MIC [24]
8.75 mg/kg/2: ED50 (Staphylococcus aureus)
8 µg/mL: MIC [10] | MIC [11] | MIC [12] | MIC (Peptococcus prevoti 1281) | MIC [17] | MIC [28]
> 128 µg/mL: MIC (Klebsiella pneumonia KAE) | MIC [3] | MIC (Escherichia coli EC14) | MIC [15] | MIC (Klebsiella pneumonia X68) | MIC (Klebsiella pneumonia X26) | MIC [21] | MIC [22] | MIC [26] | MIC (Bacteroides fragilis 111) | MIC (Escherichia coli N10)
